From US20240150358A1, “PURINES AND METHODS OF THEIR USE” (Kineta, Inc., priority 2020, published 2024)

Target: full-length human PIKFYVE (Homo sapiens (Human), UniProt Q9Y2I7, L932S/Q1183K/Q995L/S1033A/S696N/T998S)
Experiment: PIKfyve biochemical assay (ADP-Glo Kinase assay, Carna Biosciences)
Conditions: ADP-Glo, GST-PIKFYVE, 10 μM to 3 nM; read-out: hPIKfyve IC50
Protocol: (§1) PIKfyve Biochemical Assay. The biochemical PIKFyve inhibition assays were run by Carna Biosciences according to proprietary methodology based on the Promega ADP-Glo™ Kinase assay. […] GST-PIKFYVE was purified by using glutathione sepharose chromatography and used in an ADP-Glo™ Kinase assay (Promega). Reactions were set up by adding the test compound solution, substrate solution, ATP solution and kinase solution, each at 4× final concentrations. Reactions were prepared with assay buffer (50 mM MOPS, 1 mM DTT, pH7.2), mixed, and incubated in black 384 well polystyrene plates for 1 hour at room temperature. ADPGlo™ reagent was then added for 40 minutes, followed by kinase detection reagent for an additional 40 minutes. The kinase activity was evaluated by detecting relative light units on a luminescence plate reader. Samples were run in duplicate from 10 μM to 3 nM. […] IC50 values were calculated from concentration vs % inhibition curves by fitting to a four-parameter logistic curve.
as §1, with “The” for “PIKfyve Biochemical Assay. The”, “ADP-Glo™” for “ADPGlo™”, “uM” for “μM”, “curve. […]” for “curve.”

Chain of full-length human PIKFYVE (Q9Y2I7 whole entry S696N/L932S/Q995L/T998S/S1033A/Q1183K): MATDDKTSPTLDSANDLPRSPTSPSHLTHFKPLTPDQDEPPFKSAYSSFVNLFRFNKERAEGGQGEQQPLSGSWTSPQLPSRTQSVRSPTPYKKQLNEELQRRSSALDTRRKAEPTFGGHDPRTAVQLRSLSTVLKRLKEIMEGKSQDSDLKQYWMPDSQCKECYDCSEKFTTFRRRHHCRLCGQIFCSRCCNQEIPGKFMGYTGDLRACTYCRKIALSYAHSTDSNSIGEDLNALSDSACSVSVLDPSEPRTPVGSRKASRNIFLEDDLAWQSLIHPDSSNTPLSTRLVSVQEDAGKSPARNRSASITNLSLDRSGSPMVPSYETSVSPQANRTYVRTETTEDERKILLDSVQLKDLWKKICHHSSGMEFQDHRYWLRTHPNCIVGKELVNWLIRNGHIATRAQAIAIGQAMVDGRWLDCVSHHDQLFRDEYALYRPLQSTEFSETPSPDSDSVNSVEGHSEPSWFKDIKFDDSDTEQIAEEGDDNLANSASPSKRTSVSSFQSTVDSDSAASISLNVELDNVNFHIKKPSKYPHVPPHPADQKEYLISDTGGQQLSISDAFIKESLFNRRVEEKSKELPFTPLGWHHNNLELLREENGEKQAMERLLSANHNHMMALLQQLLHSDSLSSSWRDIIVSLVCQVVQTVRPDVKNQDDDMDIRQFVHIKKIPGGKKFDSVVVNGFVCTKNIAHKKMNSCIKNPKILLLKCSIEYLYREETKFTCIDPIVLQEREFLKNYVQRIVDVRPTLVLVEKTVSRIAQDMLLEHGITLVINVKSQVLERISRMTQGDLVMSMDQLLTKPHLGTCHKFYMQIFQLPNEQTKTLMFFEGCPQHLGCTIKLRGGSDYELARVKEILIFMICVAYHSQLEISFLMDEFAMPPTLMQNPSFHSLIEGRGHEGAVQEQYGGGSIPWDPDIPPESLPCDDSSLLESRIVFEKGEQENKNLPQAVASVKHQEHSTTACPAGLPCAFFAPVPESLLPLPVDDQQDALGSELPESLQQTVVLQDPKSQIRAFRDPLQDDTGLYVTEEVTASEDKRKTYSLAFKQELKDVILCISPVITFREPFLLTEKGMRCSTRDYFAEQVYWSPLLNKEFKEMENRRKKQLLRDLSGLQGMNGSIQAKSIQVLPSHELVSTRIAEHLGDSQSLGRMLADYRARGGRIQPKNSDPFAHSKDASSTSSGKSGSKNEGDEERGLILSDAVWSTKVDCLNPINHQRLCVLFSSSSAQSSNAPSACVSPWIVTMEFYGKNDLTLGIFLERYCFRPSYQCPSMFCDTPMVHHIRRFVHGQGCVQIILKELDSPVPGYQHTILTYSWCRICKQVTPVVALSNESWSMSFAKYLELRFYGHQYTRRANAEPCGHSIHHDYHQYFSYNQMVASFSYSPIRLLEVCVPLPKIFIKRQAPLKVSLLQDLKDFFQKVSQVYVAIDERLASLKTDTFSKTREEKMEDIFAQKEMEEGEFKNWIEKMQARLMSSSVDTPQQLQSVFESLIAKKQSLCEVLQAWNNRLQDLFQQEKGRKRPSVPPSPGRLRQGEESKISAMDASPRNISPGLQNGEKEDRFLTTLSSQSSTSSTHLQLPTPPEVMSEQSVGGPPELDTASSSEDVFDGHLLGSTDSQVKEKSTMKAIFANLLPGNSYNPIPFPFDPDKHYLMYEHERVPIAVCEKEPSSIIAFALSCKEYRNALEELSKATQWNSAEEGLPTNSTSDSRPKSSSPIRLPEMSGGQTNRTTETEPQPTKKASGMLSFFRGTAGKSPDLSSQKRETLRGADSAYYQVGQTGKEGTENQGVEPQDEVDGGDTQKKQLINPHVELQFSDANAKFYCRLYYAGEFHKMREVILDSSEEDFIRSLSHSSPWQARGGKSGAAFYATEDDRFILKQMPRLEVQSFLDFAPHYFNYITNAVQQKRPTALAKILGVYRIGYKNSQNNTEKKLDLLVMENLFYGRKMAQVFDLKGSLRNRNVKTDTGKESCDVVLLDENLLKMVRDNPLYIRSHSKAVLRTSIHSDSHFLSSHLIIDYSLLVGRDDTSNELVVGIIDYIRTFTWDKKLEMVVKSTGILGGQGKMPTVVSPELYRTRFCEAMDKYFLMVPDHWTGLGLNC

IC50 [nM] | Structure (SMILES)
10 to 100 | CCn1c(-c2ccncc2)nc2c(N3CCOCC3)nc(-n3ccc(-c4ccccc4)n3)nc21 [Compound 5]
< 10 | CN1CC(c2ccn(-c3nc(N4CCOCC4)c4nc(-c5ccncc5)n(C)c4n3)n2)CCC1=O (stereo not drawn) [Compound 88, 1-methyl-5-(1-(9-methyl-6-morpholino-8-(pyridin-4-yl)-9H-purin-2-yl)-1H-pyrazol-3-yl)piperidin-2-one]
10 to 100 | Cn1c(-c2ccncc2)nc2c(N3CCOCC3)nc(-c3ccn(-c4ccccc4)n3)nc21 [Compound 46, 9-methyl-6-(morpholin-4-yl)-2-(1-phenyl-1H-pyrazol-3-yl)-8-(pyridin-4-yl)-9H-purine]
10 to 100 | Cn1c(-c2ccncc2)nc2c(N3CCOCC3)nc(-c3ccc4c(c3)OCCO4)nc21 [Compound 45]
10 to 100 | Cn1c(-c2ccncc2)nc2c(N3CCOCC3)nc(N3CCC(F)(F)C3)nc21 [Compound 101, 4-(2-(3,3-difluoropyrrolidin-1-yl)-9-methyl-8-(pyridin-4-yl)-9H-purin-6-yl)morpholine]
100 to 1000 | Cn1c(-c2ccncc2)nc2c(N3CCOCC3)nc(-n3ccc(C4CC5(C4)CN(C(=O)OC(C)(C)C)C5)n3)nc21 [Compound 34]
< 10 | Cn1c(-c2ccncc2)nc2c(N3CCOCC3)nc(-c3ccnc(C4CCNCC4)n3)nc21 [Compound 108, 4-(9-methyl-2-(2-(piperidin-4-yl)pyrimidin-4-yl)-8-(pyridin-4-yl)-9H-purin-6-yl)morpholine]
10 to 100 | Cn1c(-c2ccncc2)nc2c(N3CCOCC3)nc(-n3ccc(-c4cncnc4)n3)nc21 [Compound 82, 4-(9-methyl-8-(pyridin-4-yl)-2-(3-(pyrimidin-5-yl)-1H-pyrazol-1-yl)-9H-purin-6-yl)morpholine]
100 to 1000 | Cn1c(-c2ccncc2)nc2c(N3CCOCC3)nc(-c3ccn(C4CCCN(C(=O)OC(C)(C)C)C4)n3)nc21 (stereo not drawn) [Compound 43]
100 to 1000 | CN1CCC(c2ccn(-c3nc(N4CCOCC4)c4nc(-c5ccncc5)n(C)c4n3)n2)CC1 [Compound 18]
< 10 | CN1CC(Cc2ccn(-c3nc(N4CCOCC4)c4nc(-c5ccncc5)n(C)c4n3)n2)C1 [Compound 86, 4-(9-methyl-2-(3-((1-methylazetidin-3-yl)methyl)-1H-pyrazol-1-yl)-8-(pyridin-4-yl)-9H-purin-6-yl)morpholine]
100 to 1000 | Cn1c(-c2ccncc2)nc2c(N3CCOCC3)nc(-n3ccc(C4CCCN(C(=O)OC(C)(C)C)C4)n3)nc21 (stereo not drawn) [Compound 29]
< 10 | Cn1c(C2CCNCC2)nc2c(N3CCOCC3)nc(-c3ccc4c(c3)OCCO4)nc21 [Compound 113, 4-(2-(2,3-dihydrobenzo[b][1,4]dioxin-6-yl)-9-methyl-8-(piperidin-4-yl)-9H-purin-6-yl)morpholine]
100 to 1000 | Cn1c(-c2ccncc2)nc2c(N3CCOCC3)nc(-n3ccc(C4CCOCC4)n3)nc21 [Compound 25]
100 to 1000 | Cc1nn(-c2nc(N3CCOCC3)c3nc(-c4ccncc4)n(C)c3n2)c(=O)n1-c1ccccc1 [Compound 24]
10 to 100 | Cn1c(-c2ccncc2)nc2c(N3CCOCC3)nc(-c3cccc(C4CCNCC4)n3)nc21 [Compound 3]
100 to 1000 | CN1CCCC(c2nc(-c3nc(N4CCOCC4)c4nc(-c5ccncc5)n(C)c4n3)no2)C1 (stereo not drawn) [Compound 30]
100 to 1000 | CC(C)c1ccn(-c2nc(N3CCOCC3)c3nc(-c4ccncc4)n(C)c3n2)n1 [Compound 23]
10 to 100 | Cn1c(-c2ccncc2)nc2c(N3CCOCC3)nc(-c3nccc(C4CC4)n3)nc21 [Compound 103, 4-(2-(4-cyclopropylpyrimidin-2-yl)-9-methyl-8-(pyridin-4-yl)-9H-purin-6-yl)morpholine]
10 to 100 | Cn1c(-c2ccncc2)nc2c(N3CCOCC3)nc(-n3ccc(CC4CN(C(=O)OC(C)(C)C)C4)n3)nc21 [Compound 84, tert-butyl 3-((1-(9-methyl-6-morpholino-8-(pyridin-4-yl)-9H-purin-2-yl)-1H-pyrazol-3-yl)methyl)azetidine-1-carboxylate]
10 to 100 | Cn1c(C2=CCOCC2)nc2c(N3CCOCC3)nc(-n3ccc(-c4cccnc4)n3)nc21 [Compound 85, 4-(8-(3,6-dihydro-2H-pyran-4-yl)-9-methyl-2-(3-(pyridin-3-yl)-1H-pyrazol-1-yl)-9H-purin-6-yl)morpholine]
100 to 1000 | Cn1c(C2CCNCC2)nc2c(N3CCOCC3)nc(-n3ccc(-c4ccccc4)n3)nc21 [Compound 11]

The next lines start with the compound.

Structure (SMILES) | IC50 [nM]
FC(F)n1c(-c2ccncc2)nc2c(N3CCOCC3)nc(-c3ccnc(-c4ccccc4)n3)nc21 [Compound 105, 4-(9-(difluoromethyl)-2-(2-phenylpyrimidin-4-yl)-8-(pyridin-4-yl)-9H-purin-6-yl)morpholine] | 1000 to 10000
c1ccc(-n2ccc(-c3nc(N4CCOCC4)c4cc(-c5ccncc5)sc4n3)n2)cc1 [Compound 124] | 10 to 100
Cn1c(C2CCOCC2)nc2c(N3CCOCC3)nc(-n3ccc(-c4cccc(C#N)c4)n3)nc21 [Compound 39] | 1000 to 10000
COc1ccc(-c2nc(N3CCOCC3)c3nc(-c4ccncc4)n(C)c3n2)cc1OC [Compound 106, 4-(2-(3,4-dimethoxyphenyl)-9-methyl-8-(pyridin-4-yl)-9H-purin-6-yl)morpholine] | < 10
CN1CC(c2nc3c(N4CCOCC4)nc(-n4ccc(-c5ccccc5)n4)nc3n2C)C1 [Compound 81, 4-(9-methyl-8-(1-methylazetidin-3-yl)-2-(3-phenyl-1H-pyrazol-1-yl)-9H-purin-6-yl)morpholine] | 100 to 1000
Cn1c(-c2ccncc2)nc2c(N3CCOCC3)nc(-n3ccc(CC4CNC4)n3)nc21 [Compound 80, 4-(2-(3-(azetidin-3-ylmethyl)-1H-pyrazol-1-yl)-9-methyl-8-(pyridin-4-yl)-9H-purin-6-yl)morpholine] | 100 to 1000
Cn1c(C2=CCOCC2)nc2c(N3CCOCC3)nc(-n3ccc(-c4cccc(C#N)c4)n3)nc21 [Compound 36, 3-{1-[8-(3,6-dihydro-2H-pyran-4-yl)-9-methyl-6-(morpholin-4-yl)-9H-purin-2-yl]-1H-pyrazol-3-yl}benzonitrile] | 1000 to 10000
Cn1c(-c2ccncc2)nc2c(N3CCOCC3)nc(-n3ccc(-c4cccnc4)n3)nc21 [Compound 7, 9-methyl-6-(morpholin-4-yl)-2-[3-(pyridin-3-yl)-1H-pyrazol-1-yl]-8-(pyridin-4-yl)-9H-purine] | 10 to 100
Cn1c(-c2ccncc2)nc2c(N3CCOCC3)nc(NC3CCCC3)nc21 [Compound 102, N-cyclopentyl-9-methyl-6-morpholino-8-(pyridin-4-yl)-9H-purin-2-amine] | 10 to 100
Cn1c(-c2ccncc2)nc2c(N3CCOCC3)nc(-c3ccc(Cl)cn3)nc21 [Compound 98, 4-(2-(5-chloropyridin-2-yl)-9-methyl-8-(pyridin-4-yl)-9H-purin-6-yl)morpholine] | 10 to 100
Cn1c(-c2ccncc2)nc2c(N3CCOCC3)nc(-n3ccc(C4CCOC4)n3)nc21 (stereo not drawn) [Compound 96, 4-(9-methyl-8-(pyridin-4-yl)-2-(3-(tetrahydrofuran-3-yl)-1H-pyrazol-1-yl)-9H-purin-6-yl)morpholine] | 1000 to 10000
Cn1c(-c2ccncc2)nc2c(N3CCOCC3)nc(-n3ccc(-c4ccncc4)n3)nc21 [Compound 27] | 10 to 100
Cn1c(-c2ccncc2)nc2c(N3CCOCC3)ncnc21 [Compound 8] | 100 to 1000
CN1CCC(c2nc3c(N4CCOCC4)nc(-n4ccc(-c5ccccc5)n4)nc3n2C)CC1 [Compound 9] | 100 to 1000
c1ccc(-c2nccc(-c3nc(N4CCOCC4)c4nc(-c5ccncc5)sc4n3)n2)cc1 [Compound 123] | 10 to 100

Same assay, conditions: values plotted in FIG. 7; read-out: PIKFYVE Biochemistry (IC50)

Structure (SMILES) | IC50 [nM]
c1ccc(-c2nc(-c3cc(N4CCOCC4)nc(OCc4ccncc4)n3)no2)cc1 | > 10000
O=c1c(CCOc2cccnc2)cc2ncncc2n1-c1ccccc1 | > 10000
